Laboratory results as given in PMC4473678, “Swedish mutant APP-based BACE1 binding site peptide reduces APP β-cleavage and cerebral Aβ levels in Alzheimer’s mice” (Scientific Reports, 2015).
Entries after “also recorded” stand apart in the source; their conditions may differ.

Experiments:
recombinant BACE1 = assay: BACE1 activity (FRET) assay, cell-free; assay type: biochemical
Experimental: The BACE1 inhibiting activity of APP-based BACE1 site binding peptides were determined using a fluorescence resonance energy transfer (FRET) assay (Pan Vera Co., Madison, WI), which employs a recombinant baculovirus-expressed BACE1 and a specific substrate (Rh-[…]-quencher) that is based on the APPswe mutation. This specific peptide substrate becomes highly fluorescent upon enzymatic cleavage. […] Then, 10 μL of BACE1 stop buffer (2.5 M sodium acetate) was added to the mixture. Fluorescence was read using a fluorometer, with excitation at 545 nm and emission at 585 nm.

5XFAD mice [1] = assay: Cerebral Aβ ELISA, 5XFAD mice; assay type: in vivo, mouse; conditions: 100 nmol/kg i.p. daily, 8 weeks, versus TAT or PBS, *P < 0.05, **P < 0.01, ***P < 0.005, listed as TAT-APPsweBBP
Experimental: Transgenic AD mice [5XFAD; B6SJL-Tg(APPSwFlLon,PSEN1*M146L*L286V) 6799Vas/Mmjax] at 2.5 months of age were obtained from the Jackson Laboratory (Bar Harbor, ME) and housed and maintained in the Animal Facility of College of Medicine at University of South Florida (USF). The mice at 3.5 months of age were treated with TAT-APPsweBBP, TAT peptide (100 nmol/kg in 100 μL PBS) or PBS (100 μL) daily by intraperitioneal injection (i.p.) for eight consecutive weeks. The mice were subjected to behavioral testing after 8-week treatment and then euthanized for immunohistochemical, WB and ELISA analyses. Animals were housed and maintained at USF and all experiments were in compliance with protocols approved by USF Institutional Animal Care and Use Committee. […]
(§1) Mouse brains were homogenized in ice-cold lysis buffer for 30 s using a Minilys tissue homogenizer (Bertin Technologies, Montigny-le-Bretonneux, France) set at high speed, allowed to stand for 15 min at 4 °C, and centrifuged at 15000 rpm for 30 min. Soluble Aβ1−40/42 species and sAPPα were directly detected in cultured cell media or brain homogenates using the Aβ1−40/42 (Invitrogen) and sAPPα ELISA kits (IBL-America, Minneapolis, MN). Detergent-insoluble total […] species were detected in brain by extracting pellets in 5 M guanidine HCl buffer, followed by a 1:20 dilution in lysis buffer.

5XFAD mice [2] = assay: WB of APP processing products in brain homogenates, 5XFAD mice; assay type: in vivo, mouse; conditions: 8 weeks
Experimental: (§2) Transgenic AD mice [5XFAD; B6SJL-Tg(APPSwFlLon,PSEN1*M146L*L286V) 6799Vas/Mmjax] at 2.5 months of age were obtained from the Jackson Laboratory (Bar Harbor, ME) and housed and maintained in the Animal Facility of College of Medicine at University of South Florida (USF). The mice at 3.5 months of age were treated with TAT-APPsweBBP, TAT peptide (100 nmol/kg in 100 μL PBS) or PBS (100 μL) daily by intraperitioneal injection (i.p.) for eight consecutive weeks. The mice were subjected to behavioral testing after 8-week treatment and then euthanized for immunohistochemical, WB and ELISA analyses. Animals were housed and maintained at USF and all experiments were in compliance with protocols approved by USF Institutional Animal Care and Use Committee. All methods were performed in accordance with relevant guidelines and regulations.
(§3) WB analysis was performed as previously described. Briefly, the proteins from the various cell-free suspensions, cell lysates and brain homogenates were electrophoretically separated using 10% bicine/tris gel (8 M urea) for proteins less than 5 kD or 10% tricine/tris gels for larger proteins. Electrophoresed proteins were transferred to polyvinylidene difluoride membranes (Bio-Rad, Richmond, CA), washed and blocked for 2 h at room temperature in Tris-buffered saline containing 5% (w/v) nonfat dry milk (TBS/NFDM). After blocking, membranes were hybridized for 2 h with various primary antibodies, washed and incubated for 1 h with the appropriate HRP-conjugated secondary antibody in TBS/NFDM. Blots were developed using the luminol reagent (Thermo Fisher Scientific, Waltham, MA).

CHO/APPswe cells = assay: APP processing in CHO/APPswe cells (WB, ELISA); assay type: cell-based, Chinese hamster; conditions: 0 to 20 μM, 24 h
Experimental: (§4) Chinese hamster ovary (CHO) cells engineered to express human APPwt (CHO/APPwt cells) or human APPswe (CHO/APPswe cells) were kindly provided by Dr. Stefanie Hahn and Dr. Sascha Weggen (University of Heinrich Heine, Dusseldorf, Germany). As described in our recent report, these cells were cultured in Dulbecco’s modified Eagle’s medium with 10% fetal bovine serum, 1 mM sodium pyruvate and 100 U/mL of penicillin/streptomycin.
(§5) Following application of blocking buffer, these cells were stained with mouse anti-BACE1 and anti-biotin antibodies overnight at 4 °C for immunocytochemical analysis. In order to determine the inhibitory effects of TAT-APPsweBBP on BACE1-mediated APP β-cleavage and subsequent Aβ production, both CHO/APPwt and CHO/APPswe cells were plated in 24 well-plates (3×10^5/well) and treated with TAT-APPsweBBP at 0 to 20 μM for 24 h. The cultured media were collected for Aβ and sAPPα analysis by ELISA and WB. Cell lysates were also prepared for analysis of APP amyloidogenic processing by WB.
as §3, §1

5XFAD mice [3] = assay: Rotarod test, 5XFAD mice; assay type: in vivo, mouse; conditions: 100 nmol/kg i.p. daily, 8 weeks, n = 10 per treatment, listed as TAT-APPsweBBP
Experimental: as §2
The rotarod task was also performed to exclude the possibility that positive effects of any treatment in RAWM test are due to improvements in sensorimotor ability. Mice were positioned on the rod (diameter 3.6 cm) of the equipment (Rotarod 7650 accelerating model; Ugo Basile, Biological Research Apparatus, Varese, Italy), which was initially set at 1.0 rpm. The rod was then allowed to steadily accelerate up to 40.0 rpm over a 3-min session and evaluation was made by monitoring latency to fall.

CHO/APPwt cells = assay: APP processing in CHO/APPwt cells (WB, ELISA); assay type: cell-based, Chinese hamster; conditions: 0 to 20 μM, 24 h
Experimental: as §4, §5, §3, §1

[4] = test system: recombinant BACE1 protein; assay: Immunoprecipitation/WB of peptide-BACE1 binding, cell-free; conditions: 10 μg biotin-labeled peptide with 10 μL recombinant BACE1 (1.0 U/mL), 4 h, 37 °C; anti-BACE1 IP/anti-biotin WB and reverse; listed as TAT-APPsweBBP
Experimental: In order to confirm that APPsweBBP containing the β-cleavage site could bind to and be consequently proteolyzed by BACE1, 10 μg of biotin-labeled TAT-APPsweBBP was incubated with or without 10 μL of recombinant BACE1 protein (1.0 U/mL) in BACE1 reaction buffer for 4 h at 37 °C and then subjected to WB analysis as described previously. In addition, we performed immunoprecipitation (IP) and WB analyses of this mixture with anti-BACE1 and anti-biotin antibodies to confirm that TAT-APPsweBBP, but not TAT, specifically binds to BACE1.

WT mice = assay: Radial arm water maze (RAWM), WT mice; assay type: in vivo, mouse; conditions: 100 nmol/kg i.p. daily, 8 weeks, n = 10 per treatment, listed as TAT-APPsweBBP
BACE1 in CHO/APPwt cells = assay: IP/WB of BACE1 binding in CHO/APPwt cell lysates; set-up: species or system Chinese hamster; conditions: biotin-labeled peptide 20 μM, 30 min, anti-biotin IP, listed as TAT-APPsweBBP
[5] = WB 6E10, listed as TAT-APPsweBBP
[6] = *P < 0.05, **P < 0.01, three independent experiments, each triplicated

YGRKKRRQRRREISEVNLDAEFR [APPsweBBP conjugated with the membrane fusion fragment of HIV-1 Tat protein]
BACE1 inhibition (result in words) (recombinant BACE1; FRET assay, APPsweBBP or TAT-APPsweBBP at 0.05, 0.5, 5 and 20 μM (Fig. 1)): competitively inhibits BACE1 activity; also recorded: much higher inhibiting activity than its prototype peptide | inhibition (recombinant BACE1; FRET assay, peptide final concentration 20 μM, 90 min, room temperature, read-out: percentage inhibition of BACE1): 93.2 ± 2.73% | % of Inhibition of BACE1 (recombinant BACE1; peptide final concentration 20 μM, FRET substrate Rh-EVNLDAEFK-quencher, 90 min, room temperature, dark, ex 545/em 585 nm, mean ± SD): 93.23 ± 2.73% | detergent-insoluble Aβ1−40/42 in brain (5XFAD mice [1]): statistically significant decreases; also recorded: significantly reduced | detergent-soluble Aβ1−40/42 in brain (5XFAD mice [1]): statistically significant decreases; also recorded: significantly reduced | total cerebral soluble Aβ (Aβs) by WB (5XFAD mice [2]; [5]): much lower levels; also recorded: reduced total cerebral soluble Aβ | β-CTF by WB (5XFAD mice [2]; [5]): much lower levels; also recorded: reduced | band density ratio of β-CTF to holo-APP (5XFAD mice [2]; densitometry, versus TAT and PBS, **P < 0.01): significantly reduces the band density ratios of β-CTF to holo-APP, compared to TAT- and PBS-treatments (**P < 0.01) | total APP expression by WB (5XFAD mice [2]; listed as TAT-APPsweBBP): without notable alteration on total APP expression; also recorded: without significantly altering total APP expression | holo APP expression by WB (CHO/APPswe cells): leaving holo APP expression unaltered | sAPPα by WB (CHO/APPswe cells): promoting | β-CTF by WB (CHO/APPswe cells): markedly inhibited | Aβ1−40/42 by ELISA (CHO/APPswe cells; [6]): significantly decreased | sAPPα by ELISA (CHO/APPswe cells; [6]): increased sAPPα levels in a dose-dependent manner | Aβ by WB (CHO/APPswe cells; listed as TAT-APPsweBBP): markedly decreased Aβs; also recorded: markedly inhibited | rotarod latency to fall / motor performance (5XFAD mice [3]): no differences between treatment groups on each day; also recorded: tended to enhance motor activity in 5XFAD mice, as shown by increased latency to fall, but this did not reach a statistical level of significance | holo APP expression by WB (CHO/APPwt cells): leaving holo APP expression unaltered | sAPPα by WB (CHO/APPwt cells): promoting | Aβ1−40/42 by ELISA (CHO/APPwt cells; [6]): significantly decreased | sAPPα by ELISA (CHO/APPwt cells; [6]): increased sAPPα levels in a dose-dependent manner | Aβ by WB (CHO/APPwt cells; listed as TAT-APPsweBBP): markedly decreased Aβs; also recorded: markedly inhibited | α-CTF by WB (CHO/APPwt cells; listed as TAT-APPsweBBP): increased α-CTF; also recorded: promoting α-CTF | binding to BACE1 (co-immunoprecipitation) [4]: binds to BACE1 protein; also recorded: strongly binds to | RAWM entry-arm errors (WT mice): no difference among the various treatment groups; also recorded: no significant difference between WT treatment groups | binding to BACE1 in cell lysates (BACE1 in CHO/APPwt cells): strongly and specifically binds to BACE1; also recorded: markedly bound to BACE1 compared to APPsweBBP
